The record followed here is patent US12215123B2, “Cordycepin-based derivatized compound with anti-tumor effect” (NANJING TECH UNIVERSITY, priority 2022, dated 2025).

Where a name gives a salt, the structure may show the parent alone. Read-outs that look alike come from different tables or passages of the source.

Assay [1] concerns gastric cancer cell line AGS. The assay is described as follows: MTT proliferation, gastric cancer cell line AGS. Type of assay: cell-based. The conditions noted are these: read-out: IC50 (μM) in gastric cancer cells, AGS. The procedure:
(§1) The method for determining inhibitory activities of the compounds on the proliferation of tumor cells by an MTT method is as follows: a bottle of cells in a good state in an exponential growth phase is added with 0.25% trypsin digestive juice, the digestion makes adherent cells fall off, with 2 to 4×10^4 cells/mL, and a cell suspension is prepared. The cell suspension is inoculated on a 96-well plate, with 90 μL/well, and cultured in a constant-temperature CO2 incubator for 24 hours. The prepared compounds are added for testing, with 10 μL/well, and cultured for 72 hours. An MTT reagent is added into a 96-well plate, with 10 μL/well, and reacts in an incubator for 4 hours to absorb a supernatant, and then dimethyl sulfoxide is added, with 100 μL/well. After a crystal is dissolved, an absorbance of each well at a wavelength of 570 nm is measured by an enzyme-linked immunosorbent assay instrument, and a cell inhibition rate is calculated. An S curve is made with a compound concentration and a corresponding inhibition rate. Therefore, IC50 of a corresponding compound is obtained.
(§2) Anti-tumor dose-effect relationship curves of the cordycepin and 40 compounds prepared in gastric cancer cell lines AGS and BGC-823 were analyzed by an MTT experimental method.

Assay [2] deals with gastric cancer cell line BGC-823. The assay is described as follows: MTT proliferation, gastric cancer cell line BGC-823. Type of assay: cell-based. The conditions noted are these: read-out: IC50 (μM) in gastric cancer cells, BGC-823. The method, then: as §1, §2
A further assay deals with B16-F10 melanoma cells. The assay is described as follows: Mouse transplanted melanoma model. Format: in vivo, C57BL/6j nude mice. Conditions: B16-F10 transplanted mice; for tumor volume: intragastric 500 ug/time/animal every other day, 24 days, blank 1760 mm^3. The procedure:
(§3) The feeding of the mouse model in the drug evaluation follows that: mice are fed and treated in a laminar flow cabinet, with 5 nude mice in each cage, drinking water and feedstuffs are added once every 3 days, and paddings are replaced once a week; a number of mice kept in each cage is no more than 5, the mice in separate cages are kept in groups as far as possible, and the mice should not be kept in a single cage; the animal management must conform to the relevant national standards on animal feeding management, and the behavioral needs of animals should be concerned at the same time to avoid unnecessary stress; the normal physiological and behavioral needs of animals, such as defecation, urination, constant body temperature maintenance, normal activities, posture adjustment and reproduction are met; good ventilation and dry animals are kept; the animals can access to drinking water and food at will, and supplementation, replacement and cleaning operations are easily carried out; a solid and safe environment is provided to avoid accidents of animals, such as escaping or limb trapping in a gap; the animals are avoided from being damaged by sharp edges or protrusions; and the animals are not disturbed during observation.
A mouse transplanted melanoma model was established and a drug was evaluated. 2.5×10^5 B16-F10 melanoma cells were suspended in 100 μL of PBS to be inoculated into an outer side of thigh of left lower limb of C57BL/6j nude mice. One week later, when the transplanted tumor reached about 100 mm^3, the mice were randomly divided into ten groups, with 10 mice in each group, comprising a blank control group, a cordycepin group, a compound 13 group, a compound 14 group, a compound 17 group, a compound 19 group, a compound 22 group, a compound 26 group, a compound 29 group and a compound 34 group respectively. The blank control group was intragastrically administrated with a nutritional agent such as a corn steep liquor and DMSO as a solvent control every day for 24 consecutive days, and the compound groups were intragastrically administrated with corresponding compounds (500 ug/time/animal in all cases) every other day for 24 consecutive days. […] The mice were killed after the experiment, blood and corresponding tissue samples were collected, tumor bodies were immediately photographed and weighed, and some tumor tissues were fixed in a formalin solution to be further detected. Two vertical diameters (length and width) of the transplanted tumor were measured with a caliper every two days to calculate a size of the transplanted tumor, and a tumor value was calculated according to a formula: tumor volume (mm^3)=[…].

Assay [3] relates to small cell lung cancer cell line H446. As to the kind of experiment: MTT proliferation, small cell lung cancer cell line H446. Conditions: MTT, 72 hours, H446; read-out: IC50 (μM) of compounds in small cell lung cancer cells, H446. Type of assay: cell-based. The method, then:
as §1
(§4) Anti-tumor dose-effect relationship curves of cordycepin and compounds 1, 2, 4, 5, 7, 8, 10, 12, 16, 18, 21, 23, 24, 35 and 38 in small cell lung cancer cell lines H1048, H446 and H69 were analyzed by an MTT experimental method.

The subject of assay [4] is small cell lung cancer cell line H1048. The assay is described as follows: MTT proliferation, small cell lung cancer cell line H1048. Type of assay: cell-based. The conditions noted are these: MTT, 72 hours, H1048; read-out: IC50 (μM) of compounds in small cell lung cancer cells, H1048. The method, then:
as §1, §4

The test system of assay [5] is small cell lung cancer cell line H69. As to the kind of experiment: MTT proliferation, small cell lung cancer cell line H69. Type of assay: cell-based. Conditions: MTT, 72 hours, H69; read-out: IC50 (μM) of compounds in small cell lung cancer cells, H69. The procedure: as §1, §4
A further assay has as its system MC-38 colon cancer cells. The assay is described as follows: Mouse transplanted colon cancer model. Type of assay: in vivo, C57BL/6j nude mice. Conditions: MC-38 transplanted mice, 28 days, 500 ug/time/animal intragastric (compound daily, antibody every 4 days); control 1,300 mm^3. The procedure:
as §3
A mouse transplanted colon cancer model was established and a drug was evaluated. […]

The mark [6] stands for this setting: Homo sapiens, MTT, 72 hours, BGC-823.

Regarding `CC(C)(C)C(=O)OCOP(=O)(COC[C@@H]1CC(O)[C@H](n2cnc3c(N)nc(S)nc32)O1)OCOC(=O)C(C)(C)C` (stereo partly drawn) [Compound 19], the half-inhibitory concentration (IC50) in assay [1] (MTT, 72 hours, AGS) was determined as 0.46 µM; in assay [2] (setting [6]), 0.76 µM. In addition, the tumor volume entry in the assay with B16-F10 melanoma cells is on record as “about 240 mm^3”.

As for `CC(C)OC(=O)C(C)NP(=O)(COC[C@H]1O[C@@H](n2cnc3c(N)ncnc32)C(O)[C@H]1N=[N+]=[N-])Oc1ccccc1` (stereo partly drawn) [Compound 27, isopropyl((((5-(6-amino-9H-purine-9-yl)-3-azide-4-hydroxytetrahydrofuran-2-yl)methoxy)methyl)(phenoxy)phosphoryl)alanine ester], the concentration for half-maximal inhibition (IC50) in assay [1] (72 h) was determined as 8.42 µM; in assay [2] (Homo sapiens, BGC-823, 72 h) it was 10.2 µM. Besides, the “inhibition of melanoma” value in the assay with B16-F10 melanoma cells (same method as Embodiment 46) was “the Same Inhibition Effect as a Compound 26”.

`CC(C)OC(=O)[C@H](C)NP(=O)(COCC1CC(C#N)C(n2cnc3c(N)ncnc32)O1)Oc1ccccc1` (stereo partly drawn) [Compound 16]: the IC50 in assay [3] amounted to 19.1 µM; in assay [4], 25.5 µM; in assay [5], 23.3 µM; in assay [1] (MTT, 72 hours, AGS), 0.14 µM; in assay [2] (MTT, 72 hours, BGC-823), 0.19 µM. Further, the tumor size in the assay with MC-38 colon cancer cells was determined as 480 mm^3.

For `COC(=O)C(C)NP(=O)(Oc1ccccc1)OC1C[C@@H](CO)O[C@H]1n1cnc2c(NC(=O)c3ccncc3)ncnc21` (stereo partly drawn) [Compound 34, methyl(((5-(hydroxymethyl)-2-(6-(isonicotinamide)-9H-purin-9-yl)tetrahydrofuran-3-yl)oxy)(phenoxy)phosphoryl)alanine salt], the IC50 in assay [1] (MTT, 72 hours, AGS) turned out to be 19.4 µM; in assay [2] (setting [6]), 24.2 µM. Besides, the tumor volume result in the assay on B16-F10 melanoma cells is reported as “about 240 mm^3”.
